The term half-life denotes how long it takes for the measured level to halve. By Ki is commonly meant the dissociation constant of the complex between target and ligand, obtained from inhibition or displacement. The term IC50 denotes the concentration that inhibits the measured activity by half.

The structures appear in SMILES notation.

Data set [1] in a line: Half life in phosphate buffer at 10 uM at pH 7.4 by LC/TOF-MS analysis. The data set is classed as physicochemical.
Data set [2] addresses T1, Cocaine esterase (Homo sapiens, UniProt O00748).
T1 sequence (O00748 whole entry): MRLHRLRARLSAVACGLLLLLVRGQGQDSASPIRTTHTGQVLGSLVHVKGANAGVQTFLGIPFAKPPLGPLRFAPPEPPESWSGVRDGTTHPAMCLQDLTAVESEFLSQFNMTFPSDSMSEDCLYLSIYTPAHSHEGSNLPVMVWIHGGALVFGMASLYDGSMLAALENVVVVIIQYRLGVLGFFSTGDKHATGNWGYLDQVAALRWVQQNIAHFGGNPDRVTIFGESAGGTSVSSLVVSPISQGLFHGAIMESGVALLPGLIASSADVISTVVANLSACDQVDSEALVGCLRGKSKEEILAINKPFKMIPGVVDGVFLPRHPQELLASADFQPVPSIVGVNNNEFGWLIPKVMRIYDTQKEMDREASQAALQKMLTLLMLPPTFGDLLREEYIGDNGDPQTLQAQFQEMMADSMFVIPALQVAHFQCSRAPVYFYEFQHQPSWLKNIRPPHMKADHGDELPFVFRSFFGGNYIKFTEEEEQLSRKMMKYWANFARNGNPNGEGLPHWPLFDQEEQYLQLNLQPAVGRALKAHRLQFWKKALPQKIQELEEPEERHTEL
The experiment in a line: Inhibition of human CES2 assessed as hydrolysis of 4NPA to 4NP at 1 mM by spectrophotometric analysis. To be noted: 1000 µM.

Data set [3] is described as follows: Half life in buffer at pH 7.4 by 1H NMR spectroscopic analysis in presence of human urine. The conditions noted are these: buffer with human urine. The format is physicochemical.
The target in data set [4] is T2, Liver carboxylesterase 1 (Homo sapiens, UniProt P23141).
T2 sequence (P23141 whole entry): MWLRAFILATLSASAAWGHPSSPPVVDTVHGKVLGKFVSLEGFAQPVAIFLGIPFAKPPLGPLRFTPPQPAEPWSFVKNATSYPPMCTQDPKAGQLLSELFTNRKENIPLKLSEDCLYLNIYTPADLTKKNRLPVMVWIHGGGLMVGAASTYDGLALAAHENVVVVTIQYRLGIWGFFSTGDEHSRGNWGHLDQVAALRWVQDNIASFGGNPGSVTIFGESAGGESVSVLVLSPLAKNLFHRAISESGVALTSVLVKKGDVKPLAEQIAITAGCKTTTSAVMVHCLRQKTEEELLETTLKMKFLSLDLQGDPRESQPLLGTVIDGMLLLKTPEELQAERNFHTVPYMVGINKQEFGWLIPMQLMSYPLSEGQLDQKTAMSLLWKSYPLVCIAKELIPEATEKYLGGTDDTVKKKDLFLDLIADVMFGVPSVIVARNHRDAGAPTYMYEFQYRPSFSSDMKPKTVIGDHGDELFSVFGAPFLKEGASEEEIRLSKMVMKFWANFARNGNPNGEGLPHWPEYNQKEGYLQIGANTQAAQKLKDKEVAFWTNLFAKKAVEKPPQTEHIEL
As to the kind of experiment: Reversible inhibition of human CES1 assessed as hydrolysis of 4NPA to 4NP.

A short description of data set [5]: Half life in phosphate buffer at pH 7.4 by HPLC analysis. The format is physicochemical.
Data set [6] concerns the target T2, Liver carboxylesterase 1. As to the kind of experiment: Inhibition of human CES1 assessed as hydrolysis of 4NPA to 4NP at 1 mM by spectrophotometric analysis. To be noted: 1000 µM.
Data set [7] concerns the target T2, Liver carboxylesterase 1. As to the kind of experiment: Time-dependent inhibition of human CES1 assessed as hydrolysis of 4NPA to 4NP preincubated for 10 mins followed by 4NPA addition.
The target of data set [8] is T2, Liver carboxylesterase 1. The experiment in a line: Time-dependent inhibition of human CES1 assessed as hydrolysis of 4NPA to 4NP preincubated for 30 mins followed by 4NPA addition.
The target in data set [9] is T2, Liver carboxylesterase 1. As to the kind of experiment: Time-dependent inhibition of human CES1 assessed as hydrolysis of 4NPA to 4NP preincubated for 60 mins followed by 4NPA addition.
The target in data set [10] is T2, Liver carboxylesterase 1. As to the kind of experiment: Activity of human CES1 assessed as loss of 1-O-acyl glucuronide at 100 uM measured at 10 mins by LC/TOF-MS analysis relative to control. The data set is classed as ADME.
The target in data set [11] is T2, Liver carboxylesterase 1. The experiment in a line: Activity of human CES1 assessed as loss of 1-O-acyl glucuronide at 100 uM measured at 30 mins by LC/TOF-MS analysis relative to control. The format is ADME. The conditions noted are these: 0.5 h.
Data set [12] addresses T2, Liver carboxylesterase 1. The experiment in a line: Activity of human CES1 assessed as loss of 1-O-acyl glucuronide at 100 uM measured at 60 mins by LC/TOF-MS analysis relative to control. The format is ADME. To be noted: 1 h.
For data set [13], the target named is T1, Cocaine esterase. The experiment in a line: Inhibition of human CES2.
Data set [14] in a line: Half life of the compound. The data set is classed as physicochemical.

`CC(C)Cc1ccc(C(C)C(=O)O[C@@H]2O[C@H](C(=O)O)[C@@H](O)[C@H](O)[C@H]2O)cc1` (mixture of isomers): in data set [1], the half-life at 10 µM was 3.67 h. In addition, the “inhibition (INH)” value in [2] is “Not Active”. Besides, in data set [3], the half-life is 3.5 h. Moreover, in data set [4], the Ki came to 355 µM.

The molecule `CC(C)Cc1ccc([C@@H](C)C(=O)O[C@@H]2O[C@H](C(=O)O)[C@@H](O)[C@H](O)[C@H]2O)cc1` gave a half-life in data set [5] of 1.8 h.

Take `O=C(O[C@@H]1O[C@H](C(=O)O)[C@@H](O)[C@H](O)[C@H]1O)c1cn(Cc2c(F)cccc2F)nn1`: the “inhibition (INH)” value in [6] and in data set [2] was “Not Active” throughout. Moreover, the half-life at 10 µM in [1] is 0.252 h.

As to `COc1ccc2cc([C@H](C)C(=O)O[C@@H]3O[C@H](C(=O)O)[C@@H](O)[C@H](O)[C@H]3O)ccc2c1`, the half-life at 10 µM in [1] was 1.77 h. In addition, the “inhibition (INH)” value in data set [2] was “Not Active”. In addition, the Ki in [4] came to 707 µM.

In the case of `O=C(Cc1ccccc1Nc1c(Cl)cccc1Cl)O[C@@H]1O[C@H](C(=O)O)[C@@H](O)[C@H](O)[C@H]1O`, the half-life at 10 µM in data set [1] is 0.537 h. The “inhibition (INH)” value in data set [2] is “Not Active”. Also, the Ki in [4] was determined as 4.32 µM. The IC50 is 2.51 µM in data set [7], 1.96 µM in data set [8] and 2.27 µM in data set [9]. In addition, the Activity in [10] was 20%; in data set [11], 50%; in data set [12], 75%.

As for `CCCC(CCC)C(=O)O` [VALPROIC ACID], the affinity in data set [13] corresponds to a Ki of 7900 µM.

Regarding `CC(C)Cc1ccc([C@H](C)C(=O)O[C@@H]2O[C@H](C(=O)O)[C@@H](O)[C@H](O)[C@H]2O)cc1`, in data set [5], the half-life was 3.3 h.

With `O=C(O)[C@H]1O[C@@H](OC(=O)[C@H](c2ccccc2Cl)N2CCc3sccc3C2)[C@H](O)[C@@H](O)[C@@H]1O`, the half-life at 10 µM in data set [1] is 5.02 h. The “inhibition (INH)” value in [2] is given as “Not Active”. Moreover, the Ki in [4] came out at 24.8 µM.

In turn, `COc1ccc2cc([C@@H](C)C(=O)O[C@@H]3O[C@H](C(=O)O)[C@@H](O)[C@H](O)[C@H]3O)ccc2c1` had a half-life at 10 µM in [1] of 0.996 h. The “inhibition (INH)” value in [2] is on record as “Not Active”. The Ki in data set [4] was 468 µM.

Take `CCCC(CCC)C(=O)O[C@@H]1O[C@H](C(=O)O)[C@@H](O)[C@H](O)[C@H]1O`: the “inhibition (INH)” value in [6] and in data set [2] was “Not Active” in each case. The molecule also showed a half-life at 10 µM in data set [1] of 15.2 h. For the same molecule, the half-life in data set [14] is 60 h.
